{
  "source": "patent US20220273590A1",
  "about": "“COMPOUNDS FOR PREVENTION AND TREATMENT OF POST-OPERATIVE COGNITIVE DYSFUNCTION” (ABREXA PHARMACEUTICALS, INC., priority 2019, published 2022)",
  "origin": "cited, not measured here",
  "conditions": "cited from earlier work",
  "data": [
    {"smiles": "CCN(C)C(=O)Oc1cccc([C@H](C)N(C)C)c1", "note": "[Rivastigmine]", "values": [
      {"measurement": "efficacy for the treatment of POCD", "setting": "clinical investigation NCT00835159, at termination", "value": "no efficacy was observed"},
      {"measurement": "safety in the treatment of POCD", "setting": "seriously ill patients after surgery, clinical investigation NCT00835159 terminated", "value": "too dangerous"}
    ]},
    {"smiles": "[Mg+2]", "note": "[Magnesium]", "values": [
      {"measurement": "reduction of POCD", "setting": "administered intravenously during cardiac surgery, clinical trial NCT00041392", "value": "failed to reduce POCD"}
    ]},
    {"smiles": "Cc1cccc([C@H](C)c2cnc[nH]2)c1C", "note": "[Dexmedetomidine]", "values": [
      {"measurement": "efficacy for POCD", "setting": "Skvarc et al. (2018)", "value": "failed to show efficacy"}
    ]}
  ]
}
